This is an account of results in patent publication US4820726A, “Oxaloamino substituted fluorinated resorcinol ethers and anti-allergic and anti-inflammatory use thereof” (Ciba-Geigy Corporation, priority 1985, dated 1989).

Experiment [1] has as its target phospholipase A2 from human leucocytes. Briefly: In vitro test for the determination of the inhibition of phospholipase A2 from human leucocytes. Conditions: enzyme from human leucocytes, 14C-oleic acid labelled E. coli phospholipids, pH 7, 37° C., 1 hour; read-out: IC50, concentration which causes an inhibition of 50% of the control activity of phospholipase A2. It is filed as biochemical. The source says:
In vitro test for the determination of the inhibition of phospholipase A2 from human leucocytes
Neutrophilic polymorphonuclear human leucocytes are isolated, starting from "buffy coats" by multi-stage fractional sedimentation and are deep-frozen.The phospholipase A2 is extracted from the cell suspension by homogenisation with the addition of ice-cold 0.36N H2 SO4 in 2M NaCl, and the supernatant obtained after centrifugation at 10,000 g is dialysed against sodium acetate buffer, pH 4.5.
To determine the enzyme activity, the enzyme (10-30 μg of protein) is incubated in 0.1M tris/HCl buffer, pH 7, with the addition of 1 mM CaCl2 and substrate consisting of phospholipids (2 μM), radioactively labelled biosynthetically with ^14 C-oleic acid, of Escherichia coli, at 37° C. for 1 hour. The reaction is stopped by addition of Dole reagent (isopropanol/heptane/1N H2 SO4 40:10:1, volume/volume) and the ^14 C-oleic acid released selectively by phospholipase A2 is extracted. The substrate also co-extracted is removed completely by filtration of the extract through a silica gel column. The ^14 C-oleic acid in the eluate is determined by radiometry.
To determine an inhibiting effect of test substances on the phospholipase A2, these are added to the incubation batch as solutions in water, dimethylsulfoxide (final concentration in the batch up to 5 vol %) or ethanol (final concentration in the batch up to 2.5 vol %). The action potency of the test substances is expressed by the IC50, i.e. the concentration which causes an inhibition of 50% of the control activity. The IC50 is determined graphically by plotting the percentage inhibition on the ordinate against the logarithm of the concentration (μM) on the abscissa.

Experiment [2] relates to LTD4 -induced contractions of the guinea-pig ileum. The experiment in a line: Inhibiting effect on LTD4-induced contractions of the guinea-pig ileum. It is filed as cell-based. The following applies: Cavia porcellus; isolated guinea-pig ileum, Tyrode solution, 38° C.; read-out: IC50, concentration which reduces LTD4 -induced contractions to 50% of the starting value. As for the experimental part: Thus, they have an antiallergic action based on a pronounced LTD4 -(leucotriene-D4)- and PAF-(PAF-acetoether)-antagonism.
Inhibiting effect on LTD4 -induced contractions of the guinea-pig ileum
Contractions are triggered off by synthetic LTD4 (leucotriene D4, potassium salt) on ileum segments which have been taken from guinea-pigs with a body weight of 300 to 400 g, fixed in an organ bath in Tyrode solution (38° C., gassing with 95% of O2 and 5% of CO2) and loaded with […], and the degree of the contractions is recorded. The degree of inhibition of these contractions to be attributed to the LTD4 -antagonistic action of the test substance is measured. The concentration, designated the IC50, of the test substance which reduces LTD4 -induced contractions to 50% of the starting value is determined.

Take `CCCc1c(OCC(O)COc2cccc(NC(=O)C(=O)O)c2C#N)ccc(C(C)=O)c1O` (centres unmarked) [N-{3-[3-(4-acetyl-3-hydroxy-2-propyl-phenoxy)-2-hydroxypropoxy]-2-cyano-phenyl}-oxamic acid, reference compound]: the IC50 is greater than 100 µM in experiment [1] and 0.087 µM in experiment [2]. As to `CC(=O)c1ccc(OCCCOc2cc(NC(=O)c3nnn[nH]3)c(C)cc2Cl)c(CCC(F)(F)F)c1O` [N-{{3-{3-[4-acetyl-3-hydroxy-2-(3,3,3-trifluoropropyl)-phenoxy]-propoxy}-4-chloro-6-methyl-phenyl}}-1H-tetrazole-5-carboxamide], the IC50 in experiment [1] was 13 µM.

Regarding `CC(=O)c1ccc(OCCCOc2cc(NC(=O)c3nnn[nH]3)c(C)cc2Br)c(CCC(F)(F)F)c1O` [N-{{3-{3-[4-acetyl-3-hydroxy-2-(3,3,3-trifluoropropyl)phenoxy]-propoxy}-4-bromo-6-methyl-phenyl}}-1H-tetrazole-5-carboxamide], the IC50 was found to be 12 µM in experiment [1] and 0.01 µM in experiment [2].
